In patent publication US11267800B2, “Cyclohexyl acid triazole azines as LPA antagonists” (BRISTOL-MYERS SQUIBB COMPANY, priority 2017, dated 2022):

Molecular target: T1, human LPA1 (Homo sapiens, UniProt Q92633)
T1 construct: expressed in transfected cells; host or cells: Chinese hamster ovary (CHO) cells
Experiment: LPA1 functional antagonist assay (calcium flux)
Assay type: cell-based
Conditions: CHO cells overexpressing human LPA1; inhibition of calcium flux induced by 10 nM LPA; read-out: hLPA1 IC50
Summary of the method: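 Dye-loaded CHO cells overexpressing human LPA1 (30 min, 37 °C) were preincubated 20 min at room temperature with compound (0.08 nM–5 μM; 0.5% DMSO; HBSS, 20 mM HEPES, 0.1% fatty-acid-free BSA), then stimulated with 10 nM LPA. IC50 is the concentration inhibiting 50% of LPA-induced calcium flux, from a 4-parameter logistic fit.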

T1 sequence (Q92633 whole entry): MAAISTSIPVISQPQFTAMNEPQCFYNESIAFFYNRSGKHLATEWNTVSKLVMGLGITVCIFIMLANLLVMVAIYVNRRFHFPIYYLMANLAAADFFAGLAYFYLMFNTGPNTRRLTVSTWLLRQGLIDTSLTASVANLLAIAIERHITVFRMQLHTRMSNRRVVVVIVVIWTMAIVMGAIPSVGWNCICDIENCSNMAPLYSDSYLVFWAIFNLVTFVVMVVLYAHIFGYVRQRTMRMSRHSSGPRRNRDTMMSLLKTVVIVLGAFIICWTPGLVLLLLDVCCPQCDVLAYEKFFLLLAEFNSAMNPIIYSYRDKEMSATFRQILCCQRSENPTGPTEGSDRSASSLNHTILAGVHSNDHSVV

Point of comparison: `Cc1nc(-c2nnn(C)c2CNc2nccc(OC3CC(F)(F)C3)n2)ccc1O[C@H]1CCC[C@H](C(=O)O)C1` [Example 262], IC50 50 nM. Against it:
- Cc1nc(-c2nnn(C)c2COc2ncc(F)c(NC(C)C)n2)ccc1O[C@H]1CCC[C@H](C(=O)O)C1 [Example 252, (1S,3S)-3-((6-(5-(((5-fluoro-4-(isopropylamino)pyrimidin-2-yl)oxy)methyl)-1-methyl-1H-1,2,3-triazol-4-yl)-2-methylpyridin-3-yl)oxy)cyclohexane-1-carboxylic acid] — within 1.5-fold, 65 nM
- Cc1nc(-c2nnn(C)c2CN(C)c2nccc(OC3CC3)n2)ccc1O[C@H]1CCC[C@H](C(=O)O)C1 [Example 253, (1S,3S)-3-((6-(5-(((4-cyclopropoxypyrimidin-2-yl)(methyl)amino)methyl)-1-methyl-1H-1,2,3-triazol-4-yl)-2-methylpyridin-3-yl)oxy)cyclohexane-1-carboxylic acid] — 1.8-fold lower, 28 nM
- Cc1nc(-c2nnn(C)c2COc2cccc(C(C)C)c2)ccc1O[C@H]1CCC[C@H](C(=O)O)C1 [Example 254, (1S,3S)-3-((6-(5-((3-isopropylphenoxy)methyl)-1-methyl-1H-1,2,3-triazol-4-yl)-2-methylpyridin-3-yl)oxy)cyclohexane-1-carboxylic acid] — 8.5-fold lower, 5.9 nM
- Cc1nc(-c2nnn(C)c2COc2cc(OC(F)F)ncn2)ccc1O[C@H]1CCC[C@H](C(=O)O)C1 [Example 255, (1S,3S)-3-((6-(5-(((6-(difluoromethoxy)pyrimidin-4-yl)oxy)methyl)-1-methyl-1H-1,2,3-triazol-4-yl)-2-methylpyridin-3-yl)oxy)cyclohexane-1-carboxylicacid] — 3.9-fold lower, 12.9 nM
- CCc1cc(OCc2c(-c3ccc(O[C@H]4CCC[C@H](C(=O)O)C4)c(C)n3)nnn2C)ncn1 [Example 256, (1S,3S)-3-((6-(5-(((6-ethylpyrimidin-4-yl)oxy)methyl)-1-methyl-1H-1,2,3-triazol-4-yl)-2-methylpyridin-3-yl)oxy)cyclohexane-1-carboxylic acid] — 2.3-fold lower, 22 nM
- CCc1cc(OCc2c(-c3ccc(O[C@H]4CCC[C@H](c5nnn[nH]5)C4)c(C)n3)nnn2C)ncn1 [Example 257, 4-((4-(5-(((1S,3S)-3-(1H-tetrazol-5-yl)cyclohexyl)oxy)-6-methylpyridin-2-yl)-1-methyl-1H-1,2,3-triazol-5-yl)methoxy)-6-ethylpyrimidine] — within 1.5-fold, 69 nM
- [2H]C([2H])([2H])C([2H])([2H])Oc1nccc(NCc2c(-c3ccc(O[C@H]4CCC[C@H](C(=O)O)C4)c(C)n3)nnn2C)n1 [Example 258] — 38-fold higher, 1880 nM
- CCOc1ccnc(NCc2c(-c3cnc(O[C@H]4CCC[C@H](C(=O)O)C4)c(C)n3)nnn2C)n1 [Example 259] — 2.6-fold higher, 131 nM
- C=CCCc1ccnc(NCc2c(-c3ccc(O[C@H]4CCC[C@H](C(=O)O)C4)c(C)n3)nnn2C)n1 [Example 260] — 15-fold lower, 3.4 nM
- Cc1nc(-c2nnn(C)c2CNc2ccnc(OC3CC(F)(F)C3)n2)ccc1O[C@H]1CCC[C@H](C(=O)O)C1 [Example 261] — 2.5-fold higher, 124 nM
- CCCNc1nc(OCc2c(-c3ccc(O[C@H]4CCC[C@H](C(=O)O)C4)c(C)n3)nnn2C)ncc1F [Example 263] — 1.9-fold higher, 96 nM
- CCNc1nc(OCc2c(-c3ccc(O[C@H]4CCC[C@H](C(=O)O)C4)c(C)n3)nnn2C)ncc1F [Example 264] — 1.5-fold higher, 76 nM
- Cc1nc(-c2nnn(C)c2CNc2ncc(F)c(NCCOc3ccc(F)cc3)n2)ccc1O[C@H]1CCC[C@H](C(=O)O)C1 [Example 265] — within 1.5-fold, 44 nM
- Cc1nc(-c2nnn(C)c2CNc2cccc(C(C)C)n2)ccc1O[C@H]1CCC[C@H](C(=O)O)C1 [Example 266] — 1.7-fold higher, 87 nM
- Cc1nc(-c2nnn(C)c2CNc2ccnc(C(C)C)n2)ccc1O[C@H]1CCC[C@H](C(=O)O)C1 [Example 267] — 5.6-fold higher, 278 nM
- CCOc1cccc(OCc2c(-c3ccc(O[C@H]4CCC[C@H](C(=O)O)C4)c(C)n3)nnn2C)c1 [Example 268] — within 1.5-fold, 51 nM
- Cc1nc(-c2nnn(C)c2CN(C)c2nccc(OCC(C)F)n2)ccc1O[C@H]1CCC[C@H](C(=O)O)C1 (some centres unmarked) [Example 269] — within 1.5-fold, 45 nM
- CCOc1ccnc(OCc2c(-c3ccc(O[C@H]4CCC[C@H](C(=O)O)C4)c(C)n3)nnn2C)c1 [Example 270] — 9.4-fold lower, 5.3 nM
- CCOc1ccnc(N(C)Cc2c(-c3ccc(O[C@H]4CCC[C@H](C(=O)O)C4)c(C)n3)nnn2C)n1 [Example 271] — 3.1-fold lower, 16 nM
- CCOc1cc(NCc2c(-c3ccc(O[C@H]4CCC[C@H](C(=O)O)C4)c(C)n3)nnn2C)ncn1 [Example 272] — 3.3-fold higher, 163 nM
- CCOc1cc(OCc2c(-c3ccc(O[C@H]4CCC[C@H](C(=O)O)C4)c(C)n3)nnn2C)ncn1 [Example 273] — 3.8-fold lower, 13 nM
- Cc1nc(-c2nnn(C)c2COc2cc(OC3CC3)ncn2)ccc1O[C@H]1CCC[C@H](C(=O)O)C1 [Example 274] — 1.9-fold lower, 26 nM
- Cc1nc(-c2nnn(C)c2COc2cc(C3CC3)ncn2)ccc1O[C@H]1CCC[C@H](C(=O)O)C1 [Example 275] — 3.3-fold lower, 15 nM
- Cc1nc(-c2nnn(C)c2COc2cc(OC3CC3)ccn2)ccc1O[C@H]1CCC[C@H](C(=O)O)C1 [Example 276] — 5.7-fold lower, 8.7 nM
- Cc1nc(-c2nnn(C)c2COc2cc(C(C)C)ncn2)ccc1O[C@H]1CCC[C@H](C(=O)O)C1 [Example 277] — 2.1-fold lower, 24 nM
- COc1cc(OCc2c(-c3ccc(O[C@H]4CCC[C@H](C(=O)O)C4)c(C)n3)nnn2C)nc(OC)n1 [Example 279] — 2.8-fold higher, 140 nM
- CCc1ccnc(OCc2c(-c3ccc(O[C@H]4CCC[C@H](C(=O)O)C4)c(C)n3)nnn2C)c1 [Example 280] — 3.3-fold lower, 15.3 nM
- COc1ccnc(OCc2c(-c3ccc(O[C@H]4CCC[C@H](C(=O)O)C4)c(C)n3)nnn2C)c1 [Example 281] — 7.3-fold higher, 365 nM
- Cc1nc(-c2nnn(C)c2COc2ccnc(C3CC3)n2)ccc1O[C@H]1CCC[C@H](C(=O)O)C1 [Example 282] — within 1.5-fold, 37 nM
- Cc1nc(-c2nnn(C)c2COc2cc(C3CC3)ccn2)ccc1O[C@H]1CCC[C@H](C(=O)O)C1 [Example 283] — 5.7-fold lower, 8.8 nM
- CCOc1cnnc(OCc2c(-c3ccc(O[C@H]4CCC[C@H](C(=O)O)C4)c(C)n3)nnn2C)c1 [Example 284] — 2.9-fold higher, 147 nM
- COCCCOc1cc(OCc2c(-c3ccc(O[C@H]4CCC[C@H](C(=O)O)C4)c(C)n3)nnn2C)ncn1 [Example 285] — within 1.5-fold, 61 nM
- Cc1nc(-c2nnn(C)c2COc2cc(C(C)(C)C)ncn2)ccc1O[C@H]1CCC[C@H](C(=O)O)C1 [Example 286] — 2.7-fold higher, 135 nM
- Cc1nc(-c2nnn(C)c2COc2ccnc(C(C)C)n2)ccc1O[C@H]1CCC[C@H](C(=O)O)C1 [Example 287] — within 1.5-fold, 41 nM
- Cc1nc(-c2nnn(C)c2COc2cc(C(F)(F)F)cc(C#N)n2)ccc1O[C@H]1CCC[C@H](C(=O)O)C1 [Example 288] — 6.2-fold higher, 308 nM
- Cc1nc(-c2nnn(C)c2COc2cc(OC(C)C)ncn2)ccc1O[C@H]1CCC[C@H](C(=O)O)C1 [Example 290] — 1.7-fold lower, 30 nM
- COc1ncnc(OCc2c(-c3ccc(O[C@H]4CCC[C@H](C(=O)O)C4)c(C)n3)nnn2C)c1C [Example 291] — 66-fold higher, 3280 nM
- Cc1nc(-c2nnn(C)c2COc2ncnc(OC3CC3)c2C)ccc1O[C@H]1CCC[C@H](C(=O)O)C1 [Example 292] — 7.8-fold higher, 390 nM
- CCc1ncnc(OCc2c(-c3ccc(O[C@H]4CCC[C@H](C(=O)O)C4)c(C)n3)nnn2C)c1C [Example 293] — 1.6-fold higher, 78 nM
- CCCc1cc(OCc2c(-c3ccc(O[C@H]4CCC[C@H](C(=O)O)C4)c(C)n3)nnn2C)ncn1 [Example 294] — 1.7-fold higher, 85 nM
